The target of data set [1] is DNA topoisomerase 2-alpha (Homo sapiens, UniProt P11388). In words: Inhibition of human topoisomerase-2alpha using catenated DNA as substrate after 30 mins by ethidium bromide-based gel electrophoresis.
Another data set deals with Streptococcus pyogenes. In words: Antibacterial activity against Streptococcus pyogenes after 18 to 20 hrs by CLSI-protocol based broth microdilution method. In kind it is functional. (In general: Dilution methods test growth across graded concentrations, often in twofold steps.)
In data set [2] the test system is Staphylococcus epidermidis. In words: Antibacterial activity against methicillin-resistant Staphylococcus epidermidis after 18 to 20 hrs by CLSI-protocol based broth microdilution method. Format: functional.
Data set [3] deals with Staphylococcus aureus. In words: Antibacterial activity against methicillin-sensitive Staphylococcus aureus after 18 to 20 hrs by CLSI-protocol based broth microdilution method. Format: functional.
Data set [4] relates to Staphylococcus aureus. The data set can be described thus: Antibacterial activity against methicillin-resistant Staphylococcus aureus after 18 to 20 hrs by CLSI-protocol based broth microdilution method. In kind it is functional.
The next data set addresses DNA gyrase (Staphylococcus aureus, UniProt P0A0K8+P20831).
A further data set deals with Streptococcus pneumoniae. The data set can be described thus: Antibacterial activity against penicillin-resistant Streptococcus pneumoniae after 18 to 20 hrs by CLSI-protocol based broth microdilution method. Format: functional.
For data set [5], the system named is Staphylococcus epidermidis. The data set can be described thus: Antibacterial activity against methicillin-sensitive Staphylococcus epidermidis after 18 to 20 hrs by CLSI-protocol based broth microdilution method. In kind it is functional.
Data set [6] concerns the target Voltage-gated inwardly rectifying potassium channel KCNH2 (Homo sapiens, UniProt Q12809). In words: Inhibition of human ERG expressed in CHO cells in at -80 mV holding potential by automated Qpatch clamp assay. Format: cell-based. A general note: The patch-clamp technique gives a direct electrical read-out from membranes.
The nature of data set [7]: AUCt in Sprague-Dawley rat at 100 mg/kg, po by LC-MS/MS analysis. In kind it is ADME, organism-based. Particulars: in vivo.
The subject of data set [8] is Staphylococcus aureus. In words: Antibacterial activity against methicillin-sensitive Staphylococcus aureus infected in Kunming mouse dosed subcutaneously at 0.5 and 4.0 hrs postinfection and measured at 7 to 14 days post treatment by Bliss method. Format: functional. The conditions noted are these: sc.
A short description of data set [9]: Oral bioavailability in Sprague-Dawley rat at 100 mg/kg by LC-MS/MS analysis. In kind it is ADME, organism-based. The conditions noted are these: in vivo.
Data set [10] is described as follows: Solubility of the compound in pH 6.8 intestinal juice incubated at 37 degC for 24 hrs by LC/MS/MS analysis. In kind it is physicochemical.
A short description of data set [11]: AUCt in CD1 mouse at 10 mg/kg, po by LC-MS/MS analysis. In kind it is ADME, organism-based. The conditions noted are these: in vivo.
Data set [12] is described as follows: Cmax in CD1 mouse at 10 mg/kg, po by LC-MS/MS analysis. Format: ADME, organism-based. On the set-up: dose 10 mg/kg, route oral. The conditions noted are these: in vivo.
The nature of data set [13]: Elimination half life in Sprague-Dawley rat at 100 mg/kg, po by LC-MS/MS analysis. Format: ADME, organism-based. The conditions noted are these: in vivo, read-out: beta t1/2 (converted).
A short description of data set [14]: Solubility of the compound in water incubated at 37 degC for 24 hrs by LC/MS/MS analysis. Format: physicochemical.
Data set [15] in a line: Elimination half life in CD1 mouse at 10 mg/kg, po by LC-MS/MS analysis. Particulars: in vivo, read-out: beta t1/2 (converted). Format: ADME, organism-based.
Data set [16] can be described thus: MRT in CD1 mouse at 10 mg/kg, po by LC-MS/MS analysis. Format: ADME, organism-based. Particulars: in vivo.
The test system of another data set is Neisseria gonorrhoeae. In words: Antibacterial activity against Neisseria gonorrhoeae after 18 to 20 hrs by CLSI-protocol based agar microdilution method. Format: functional.
Data set [17] is described as follows: Tmax in CD1 mouse at 10 mg/kg, po by LC-MS/MS analysis. The conditions noted are these: in vivo. In kind it is ADME, organism-based.
Data set [18] can be described thus: Solubility of the compound in pH 1.2 gastric juice incubated at 37 degC for 24 hrs by LC/MS/MS analysis. Format: physicochemical.
[19] abbreviates: Streptococcus pyogenes, read-out: MIC.
[20] abbreviates: Staphylococcus aureus, read-out: MIC.

The values that follow come from ChEMBL document CHEMBL4316588, “Design, Synthesis, and Biological Evaluation of Novel DNA Gyrase-Inhibiting Spiropyrimidinetriones as Potent Antibiotics for Treatment of Infections Caused by Multidrug-Resistant Gram-Positive Bacteria” (J Med Chem, 2019).

pIC50: −log10 of the molar value. Converted amounts (≈) assume the structure as drawn. The source made the active and inactive calls. The calls are words filed in the database; no cut-off is given here.

Sequence of DNA topoisomerase 2-alpha (P11388 whole entry): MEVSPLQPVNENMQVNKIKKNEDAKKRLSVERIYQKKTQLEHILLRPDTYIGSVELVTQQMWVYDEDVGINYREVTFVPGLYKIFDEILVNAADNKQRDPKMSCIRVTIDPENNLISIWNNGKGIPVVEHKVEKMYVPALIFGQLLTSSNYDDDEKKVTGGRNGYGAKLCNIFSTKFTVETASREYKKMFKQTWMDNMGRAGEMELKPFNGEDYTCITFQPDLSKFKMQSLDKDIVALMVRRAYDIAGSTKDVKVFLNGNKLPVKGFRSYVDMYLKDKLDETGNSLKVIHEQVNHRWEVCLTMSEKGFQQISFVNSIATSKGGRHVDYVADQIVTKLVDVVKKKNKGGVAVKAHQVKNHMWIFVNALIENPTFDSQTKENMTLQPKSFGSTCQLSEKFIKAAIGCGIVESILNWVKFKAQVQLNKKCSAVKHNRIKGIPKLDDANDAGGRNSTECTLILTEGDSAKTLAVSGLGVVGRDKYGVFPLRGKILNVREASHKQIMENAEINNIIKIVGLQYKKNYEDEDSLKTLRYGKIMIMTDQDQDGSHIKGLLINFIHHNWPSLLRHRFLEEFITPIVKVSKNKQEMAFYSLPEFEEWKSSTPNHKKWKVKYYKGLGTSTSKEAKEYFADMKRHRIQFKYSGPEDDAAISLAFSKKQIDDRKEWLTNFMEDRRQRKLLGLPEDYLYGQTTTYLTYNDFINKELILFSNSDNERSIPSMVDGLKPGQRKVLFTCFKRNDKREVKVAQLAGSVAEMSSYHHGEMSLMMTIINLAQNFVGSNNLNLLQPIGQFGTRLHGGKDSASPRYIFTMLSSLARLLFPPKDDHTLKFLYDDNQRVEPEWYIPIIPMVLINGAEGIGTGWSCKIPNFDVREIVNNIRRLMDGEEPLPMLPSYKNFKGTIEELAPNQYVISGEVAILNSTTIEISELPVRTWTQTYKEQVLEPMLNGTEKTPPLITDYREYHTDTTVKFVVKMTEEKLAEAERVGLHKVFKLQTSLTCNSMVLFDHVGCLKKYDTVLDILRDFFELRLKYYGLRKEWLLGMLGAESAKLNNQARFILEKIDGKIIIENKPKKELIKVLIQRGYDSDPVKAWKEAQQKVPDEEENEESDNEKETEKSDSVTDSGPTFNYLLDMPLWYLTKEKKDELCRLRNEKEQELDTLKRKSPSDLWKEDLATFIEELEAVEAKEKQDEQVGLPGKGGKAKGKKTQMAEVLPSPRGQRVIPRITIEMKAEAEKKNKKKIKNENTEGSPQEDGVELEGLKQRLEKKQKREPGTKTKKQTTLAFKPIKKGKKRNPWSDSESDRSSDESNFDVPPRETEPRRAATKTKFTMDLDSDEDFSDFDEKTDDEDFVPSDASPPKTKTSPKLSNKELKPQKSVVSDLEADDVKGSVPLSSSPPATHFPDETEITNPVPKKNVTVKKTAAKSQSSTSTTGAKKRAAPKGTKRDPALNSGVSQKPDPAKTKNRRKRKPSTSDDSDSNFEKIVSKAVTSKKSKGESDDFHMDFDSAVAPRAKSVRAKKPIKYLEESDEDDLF
Sequence of DNA gyrase (P0A0K8 whole entry): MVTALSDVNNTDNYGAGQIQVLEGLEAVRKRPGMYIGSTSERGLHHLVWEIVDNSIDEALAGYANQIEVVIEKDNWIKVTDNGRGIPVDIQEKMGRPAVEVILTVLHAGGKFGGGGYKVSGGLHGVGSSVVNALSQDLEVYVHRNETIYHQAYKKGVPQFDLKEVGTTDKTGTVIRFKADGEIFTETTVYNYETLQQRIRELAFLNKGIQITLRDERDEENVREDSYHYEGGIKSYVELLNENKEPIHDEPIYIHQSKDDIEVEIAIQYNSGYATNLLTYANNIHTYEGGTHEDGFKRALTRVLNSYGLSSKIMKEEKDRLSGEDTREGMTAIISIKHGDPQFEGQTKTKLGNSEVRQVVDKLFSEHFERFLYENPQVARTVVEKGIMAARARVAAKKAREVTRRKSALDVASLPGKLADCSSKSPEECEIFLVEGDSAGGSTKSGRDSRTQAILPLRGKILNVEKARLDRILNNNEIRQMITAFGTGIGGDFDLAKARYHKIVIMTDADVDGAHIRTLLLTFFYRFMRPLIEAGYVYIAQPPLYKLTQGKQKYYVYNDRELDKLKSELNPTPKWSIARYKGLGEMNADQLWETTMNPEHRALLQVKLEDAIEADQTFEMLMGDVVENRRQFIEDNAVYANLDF
Sequence of DNA gyrase (P20831 whole entry): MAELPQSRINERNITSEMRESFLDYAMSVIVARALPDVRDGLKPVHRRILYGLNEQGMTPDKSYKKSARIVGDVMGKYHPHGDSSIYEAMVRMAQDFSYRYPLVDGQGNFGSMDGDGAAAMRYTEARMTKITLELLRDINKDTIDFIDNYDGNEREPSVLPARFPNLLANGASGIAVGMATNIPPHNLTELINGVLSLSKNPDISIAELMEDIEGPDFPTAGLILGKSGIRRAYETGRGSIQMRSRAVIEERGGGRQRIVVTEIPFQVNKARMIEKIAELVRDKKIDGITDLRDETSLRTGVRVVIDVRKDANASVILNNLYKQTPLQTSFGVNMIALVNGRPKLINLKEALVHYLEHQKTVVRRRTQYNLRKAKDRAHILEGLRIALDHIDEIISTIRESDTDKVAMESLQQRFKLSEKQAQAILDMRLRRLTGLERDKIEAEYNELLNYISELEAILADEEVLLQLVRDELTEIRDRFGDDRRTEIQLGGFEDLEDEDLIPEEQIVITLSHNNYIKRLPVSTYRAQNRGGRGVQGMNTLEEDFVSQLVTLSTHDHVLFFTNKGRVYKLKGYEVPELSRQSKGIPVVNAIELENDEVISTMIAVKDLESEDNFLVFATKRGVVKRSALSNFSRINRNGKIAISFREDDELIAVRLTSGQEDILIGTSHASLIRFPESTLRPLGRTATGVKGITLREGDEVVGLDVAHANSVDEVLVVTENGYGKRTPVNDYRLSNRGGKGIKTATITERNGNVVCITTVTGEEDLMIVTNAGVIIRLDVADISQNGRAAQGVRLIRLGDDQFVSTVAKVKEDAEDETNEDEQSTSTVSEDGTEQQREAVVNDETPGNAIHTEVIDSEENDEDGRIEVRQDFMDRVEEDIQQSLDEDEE
Sequence of Voltage-gated inwardly rectifying potassium channel KCNH2 (Q12809 whole entry): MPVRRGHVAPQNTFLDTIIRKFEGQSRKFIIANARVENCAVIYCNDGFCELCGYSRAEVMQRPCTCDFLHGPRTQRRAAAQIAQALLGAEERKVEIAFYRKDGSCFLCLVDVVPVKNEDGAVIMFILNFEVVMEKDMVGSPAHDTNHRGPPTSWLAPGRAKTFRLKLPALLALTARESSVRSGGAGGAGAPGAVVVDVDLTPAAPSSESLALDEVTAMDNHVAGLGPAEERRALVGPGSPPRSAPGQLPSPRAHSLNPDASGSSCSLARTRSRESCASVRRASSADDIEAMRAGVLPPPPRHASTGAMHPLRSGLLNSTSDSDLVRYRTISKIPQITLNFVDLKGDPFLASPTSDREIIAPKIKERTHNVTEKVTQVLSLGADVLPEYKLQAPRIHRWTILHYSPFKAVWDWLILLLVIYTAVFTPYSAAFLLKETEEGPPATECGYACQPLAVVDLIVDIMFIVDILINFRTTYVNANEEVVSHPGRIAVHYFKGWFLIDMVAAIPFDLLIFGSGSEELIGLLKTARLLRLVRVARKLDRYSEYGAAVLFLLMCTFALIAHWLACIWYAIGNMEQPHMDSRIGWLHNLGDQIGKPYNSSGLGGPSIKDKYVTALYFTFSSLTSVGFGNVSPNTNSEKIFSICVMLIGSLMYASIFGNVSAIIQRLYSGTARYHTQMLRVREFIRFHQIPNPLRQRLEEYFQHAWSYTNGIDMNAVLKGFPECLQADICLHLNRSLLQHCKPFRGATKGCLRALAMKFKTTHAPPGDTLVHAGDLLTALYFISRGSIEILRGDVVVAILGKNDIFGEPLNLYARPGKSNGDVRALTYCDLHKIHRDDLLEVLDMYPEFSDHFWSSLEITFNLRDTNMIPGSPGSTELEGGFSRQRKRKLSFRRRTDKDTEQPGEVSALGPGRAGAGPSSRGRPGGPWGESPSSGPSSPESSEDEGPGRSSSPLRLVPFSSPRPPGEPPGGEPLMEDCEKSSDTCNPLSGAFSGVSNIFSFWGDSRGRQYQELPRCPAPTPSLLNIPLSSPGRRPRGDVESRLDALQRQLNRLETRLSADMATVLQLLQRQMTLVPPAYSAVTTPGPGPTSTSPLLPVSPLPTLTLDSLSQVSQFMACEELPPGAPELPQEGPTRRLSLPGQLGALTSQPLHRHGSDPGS
Description for DNA gyrase: Inhibition of Staphylococcus aureus DNA gyrase supercoiling activity using relaxed pHOT-1 DNA as substrate after 60 mins by ethidium bromide-based gel electrophoresis

As for `CC[C@H]1CN(c2noc3c(F)c4c(cc23)CC2(C(=O)NC(=O)NC2=O)[C@H]2[C@H](C)O[C@H](C)CN42)C(=O)S1`, the figures for the pIC50 (in data set [1]; against DNA gyrase) were 3.89 and 5.04, respectively. The MIC (in the data set with Streptococcus pyogenes (setting [19]); in [2]; with Staphylococcus aureus [3] (setting [20]); in the data set with Staphylococcus aureus [4]) was less than 0.03 mg/L throughout.
`C[C@@H]1CN2c3c(cc4c(N5C(=O)SC[C@@H]5C)noc4c3F)CC3(C(=O)NC(=O)NC3=O)[C@H]2[C@H](C)O1`: the negative logarithm of the IC50 (pIC50) (in general, −log10 of the IC50, conventionally taken in molar units) in data set [1] is less than 3.70; at DNA gyrase, 4.81. Also, the minimal inhibitory concentration (MIC) (as a rule, the lowest concentration found to suppress growth) was 0.125 to 0.25 mg/L (≈ 0.248 to 0.497 µM) in the data set on Streptococcus pyogenes (setting [19]); 0.06 to 0.25 mg/L (≈ 0.119 to 0.497 µM) in data set [2]; 0.25 to 0.5 mg/L (≈ 0.497 to 0.993 µM) in the data set on Staphylococcus aureus [3] (setting [20]); 0.03 to 0.125 mg/L (≈ 0.0596 to 0.248 µM) in the data set with Staphylococcus aureus [4]; 0.125 to 1 mg/L (≈ 0.248 to 1.99 µM) with Streptococcus pneumoniae; 0.03 to 0.125 mg/L (≈ 0.0596 to 0.248 µM) in [5].
With `C[C@@H]1CN2c3c(cc4c(N5C(=O)OC[C@@H]5C)noc4c3C#N)CC3(C(=O)NC(=O)NC3=O)[C@H]2[C@H](C)O1`, the minimal inhibitory concentration (MIC) in the data set on Streptococcus pyogenes (setting [19]) fell in the range of 4 to 8 mg/L (≈ 8.09 to 16.2 µM); in data set [2], 1 to 2 mg/L (≈ 2.02 to 4.04 µM); in the data set on Staphylococcus aureus [3] (setting [20]), 4 to 8 mg/L (≈ 8.09 to 16.2 µM); in the data set with Staphylococcus aureus [4] it was 1 to 32 mg/L (≈ 2.02 to 64.7 µM); in the data set on Streptococcus pneumoniae it was 2 to 8 mg/L (≈ 4.04 to 16.2 µM); in data set [5], 0.5 to 2 mg/L (≈ 1.01 to 4.04 µM).
Turning to `C[C@@H]1CN2c3c(cc4c(N5CCOC5=O)ncnc4c3F)CC3(C(=O)NC(=O)NC3=O)[C@H]2[C@H](C)O1` (relative stereo), the MIC result (with Streptococcus pyogenes; in data set [2]; in the data set on Staphylococcus aureus [3]; with Staphylococcus aureus [4]; in the data set on Streptococcus pneumoniae; in [5]) was “inactive” each time.
Regarding `C[C@@H]1CN2c3c(cc4c(N5C(=O)SC[C@@H]5Cc5ccccc5)noc4c3F)CC3(C(=O)NC(=O)NC3=O)[C@H]2[C@H](C)O1`, the minimal inhibitory concentration (MIC) in the data set with Streptococcus pyogenes (setting [19]) fell in the range of 4 to 8 mg/L (≈ 6.9 to 13.8 µM); in data set [2] it was 1 to 4 mg/L (≈ 1.73 to 6.9 µM); in the data set with Staphylococcus aureus [3] (setting [20]) it was 2 to 8 mg/L (≈ 3.45 to 13.8 µM); in the data set with Staphylococcus aureus [4], 8 to 16 mg/L (≈ 13.8 to 27.6 µM); in the data set with Streptococcus pneumoniae, 4 to 8 mg/L (≈ 6.9 to 13.8 µM); in [5], 1 to 4 mg/L (≈ 1.73 to 6.9 µM).
As to `CC(=O)NC[C@H]1CN(c2noc3c(F)c4c(cc23)CC2(C(=O)NC(=O)NC2=O)[C@H]2[C@H](C)O[C@H](C)CN42)C(=O)S1`, the MIC in the data set with Streptococcus pyogenes (setting [19]) is 16 to 32 mg/L (≈ 28.5 to 57.1 µM); in data set [2] it was 0.5 to 2 mg/L (≈ 0.892 to 3.57 µM); in the data set with Staphylococcus aureus [3] (setting [20]) it was 16 mg/L (≈ 28.5 µM); against Staphylococcus aureus [4], 16 to 64 mg/L (≈ 28.5 to 114 µM); with Streptococcus pneumoniae, 2 mg/L (≈ 3.57 µM); in data set [5], 2 to 8 mg/L (≈ 3.57 to 14.3 µM).
Consider `C[C@@H]1CN2c3c(cc4c(N5C(=O)OC[C@@H]5C)noc4c3F)CC3(C(=O)N(C)C(=O)N(C)C3=O)[C@H]2[C@H](C)O1`, for which the MIC result (in the data set on Streptococcus pyogenes; in [2]; in the data set on Staphylococcus aureus [3]; with Staphylococcus aureus [4]; with Streptococcus pneumoniae; in data set [5]) was “inactive” each time.
For `C[C@@H]1CN2c3c(cc4c(N5C[C@H](C)SC5=O)noc4c3F)CC3(C(=O)NC(=O)NC3=O)[C@H]2[C@H](C)O1`, the negative logarithm of the IC50 (pIC50) in data set [6] was less than 4.40; in [1], less than 3.70; on DNA gyrase, 4.90. For the same molecule, the values for the AUC(0-t) in data set [7] and in [11] were 452 µg·h/mL and 22.5 µg·h/mL, respectively. The 50% effective dose (ED50) (in general, the dose at which the effect has come halfway, by size or by number of responders) in the data set on Staphylococcus aureus [8] amounted to 9.59 mg/kg. In [9], the bioavailability (as a rule, the share of a dose that reaches the circulation, judged against a reference dose that is usually intravenous) amounted to 52.7%. Moreover, the results for the solubility at 24 h in data set [10], in data set [14] and in data set [18] were 11.3 µM (≈ 5.69 µg/mL), 10.2 µM (≈ 5.14 µg/mL) and 9.4 µM (≈ 4.73 µg/mL), respectively. In addition, the minimum inhibitory concentration (MIC) (with Streptococcus pyogenes (setting [19]); in data set [2]; in the data set with Streptococcus pneumoniae; in [5]) was less than 0.03 mg/L each time. Moreover, the concentration in [12] peaked (Cmax) at 2.08 µg/mL. Further, the results for the half-life in [13] and in data set [15] were 8.63 h and 7.68 h, respectively. In data set [16], the MRT (as a rule, the average time that molecules of a dose stay in the body) amounted to 11.4 h. The MIC50 (commonly the lowest concentration that inhibits either 50% of growth or 50% of the strains tested, depending on the study) against Neisseria gonorrhoeae was 0.06 mg/L (≈ 0.119 µM). In the data set with Neisseria gonorrhoeae, the MIC90 (usually the lowest concentration that inhibits either 90% of growth or 90% of the strains tested, depending on the study) stood at 0.125 mg/L (≈ 0.248 µM). In data set [17], the time to peak (Tmax) (usually the time at which the peak concentration occurs) came to 1.33 h.
For the molecule `C[C@@H]1CN(c2noc3c(C#N)c4c(cc23)CC2(C(=O)NC(=O)NC2=O)[C@H]2[C@H](C)O[C@H](C)CN42)C(=O)O1`, the minimum inhibitory concentration (MIC) was 4 to 8 mg/L (≈ 8.09 to 16.2 µM) in the data set with Streptococcus pyogenes (setting [19]); 2 mg/L (≈ 4.04 µM) in data set [2]; 2 to 8 mg/L (≈ 4.04 to 16.2 µM) with Staphylococcus aureus [3] (setting [20]); 0.25 to 8 mg/L (≈ 0.506 to 16.2 µM) in the data set on Staphylococcus aureus [4]; 4 to 8 mg/L (≈ 8.09 to 16.2 µM) in the data set on Streptococcus pneumoniae; 1 to 2 mg/L (≈ 2.02 to 4.04 µM) in data set [5].
